biological target: T1, purified catalytic domain of recombinant human TACE (rhTACEc) (Homo sapiens, UniProt P78536, N452Q/S266A); assay: TACE kinetic assay, cleavage of internally quenched fluorescent peptide substrate SPDL-3; format: biochemical; details: Ki (nM), TACE inhibitory activity, rhTACEc 70 pM, 30 μM SPDL-3, 90 min pre-incubation at 25° C.
T1 construct: rhTACEc, Residue 215 to 477 with two mutation (S266A and N4520) and a 6×His tail; 6xHis (C); made in house; host or cells: baculovirus/Hi5 insect cells
T1 sequence (P78536 215-477 S266A/N452Q limits assumed): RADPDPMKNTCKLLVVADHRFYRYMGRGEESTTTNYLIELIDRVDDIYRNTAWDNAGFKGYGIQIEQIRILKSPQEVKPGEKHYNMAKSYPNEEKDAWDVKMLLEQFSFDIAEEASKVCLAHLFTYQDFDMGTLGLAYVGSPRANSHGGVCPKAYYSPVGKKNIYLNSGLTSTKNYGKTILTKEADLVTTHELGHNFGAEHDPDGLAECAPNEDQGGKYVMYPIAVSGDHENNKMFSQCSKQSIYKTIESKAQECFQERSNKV

SMILES	Ki
COc1ccc2c(c1)C(=O)N(C[C@@]1(C#Cc3ccccc3F)NC(=O)NC1=O)C2 [Compound 516]	0.13 nM

same assay, conditions: TACE inhibition, Table 1001; read-out: Ki Rating

SMILES	Ki
COc1ccc2c(c1)C(=O)N(C[C@@]1(C#Cc3ccc(C(F)(F)F)cc3)NC(=O)NC1=O)C2 [Compound 486]	< 5 nM
COc1ccc2c(c1)C(=O)N(C[C@@]1(C#Cc3cnn(C)c3)NC(=O)NC1=O)C2 [Compound 487]	< 5 nM
COc1ccc2c(c1)C(=O)N(C[C@@]1(C#Cc3cccc(Cl)c3F)NC(=O)NC1=O)C2 [Compound 488]	< 5 nM
COc1ccc2c(c1)C(=O)N(C[C@@]1(C#Cc3cccc(F)c3F)NC(=O)NC1=O)C2 [Compound 489]	< 5 nM
COc1ccc2c(c1)C(=O)N(C[C@@]1(C#Cc3ccc(F)cc3F)NC(=O)NC1=O)C2 [Compound 490]	< 5 nM
COc1ccc2c(c1)C(=O)N(C[C@@]1(C#Cc3c(F)cccc3F)NC(=O)NC1=O)C2 [Compound 491]	< 5 nM
COc1ccc2c(c1)C(=O)N(C[C@@]1(C#Cc3c(F)cc(F)cc3F)NC(=O)NC1=O)C2 [Compound 492]	< 5 nM
COc1ccc2c(c1)C(=O)N(C[C@@]1(C#Cc3cccc(F)c3Cl)NC(=O)NC1=O)C2 [Compound 493]	< 5 nM
COc1ccc2c(c1)C(=O)N(C[C@@]1(C#Cc3ccc4nc(N)sc4c3)NC(=O)NC1=O)C2 [Compound 494]	< 5 nM
COc1ccc2c(c1)C(=O)N(C[C@@]1(C#Cc3ccc4sc(C)nc4c3)NC(=O)NC1=O)C2 [Compound 495]	< 5 nM
COc1ccc2c(c1)C(=O)N(C[C@@]1(C#Cc3ccc(C)nc3C)NC(=O)NC1=O)C2 [Compound 496]	< 5 nM
COc1ccc2c(c1)C(=O)N(C[C@@]1(C#Cc3cc(C)ccc3F)NC(=O)NC1=O)C2 [Compound 497]	< 5 nM
COc1ccc2c(c1)C(=O)N(C[C@@]1(C#Cc3cc(F)ccc3C)NC(=O)NC1=O)C2 [Compound 498]	< 5 nM
COc1ccc2c(c1)C(=O)N(C[C@@]1(C#Cc3ccc(Cl)cc3F)NC(=O)NC1=O)C2 [Compound 499]	< 5 nM
COc1ccc2c(c1)C(=O)N(C[C@@]1(C#Cc3ccc(C)cc3F)NC(=O)NC1=O)C2 [Compound 500]	< 5 nM
COc1ccc2c(c1)C(=O)N(C[C@@]1(C#Cc3cccc4nc(N)sc34)NC(=O)NC1=O)C2 [Compound 503]	< 5 nM
COc1ccc2c(c1)C(=O)N(C[C@@]1(C#Cc3ccc4nc(NC5CC5)sc4c3)NC(=O)NC1=O)C2 [Compound 504]	< 5 nM
COc1ccc2c(c1)C(=O)N(C[C@@]1(C#Cc3ccc4sc(N)nc4c3)NC(=O)NC1=O)C2 [Compound 505]	< 5 nM
COc1cncc(C#C[C@]2(CN3Cc4ccc(OC)cc4C3=O)NC(=O)NC2=O)c1 [Compound 506]	< 5 nM
CNc1nc2cccc(C#C[C@]3(CN4Cc5ccc(OC)cc5C4=O)NC(=O)NC3=O)c2s1 [Compound 507]	< 5 nM
CNc1nc2cc(C#C[C@]3(CN4Cc5ccc(OC)cc5C4=O)NC(=O)NC3=O)ccc2s1 [Compound 508]	< 5 nM
COc1ccc2c(c1)C(=O)N(C[C@@]1(C#Cc3ccc4nc(C)sc4c3)NC(=O)NC1=O)C2 [Compound 509]	< 5 nM
COc1ccc2c(c1)C(=O)N(C[C@@]1(C#Cc3ccc(F)c(Cl)c3)NC(=O)NC1=O)C2 [Compound 510]	< 5 nM
COc1ccc2c(c1)C(=O)N(C[C@@]1(C#Cc3ccc(C)s3)NC(=O)NC1=O)C2 [Compound 513]	< 5 nM
COc1ccc2c(c1)C(=O)N(C[C@@]1(C#Cc3ccccc3C(F)(F)F)NC(=O)NC1=O)C2 [Compound 514]	< 5 nM
COc1ccc2c(c1)C(=O)N(C[C@@]1(C#Cc3ccccc3OC(F)(F)F)NC(=O)NC1=O)C2 [Compound 515]	< 5 nM
COc1ccc2c(c1)C(=O)N(C[C@@]1(C#Cc3ccccc3F)NC(=O)NC1=O)C2 [Compound 516]	< 5 nM

SMILES	Ki
COc1ccc2c(c1)C(=O)N(C[C@@]1(C#Cc3cc(F)ccc3Cl)NC(=O)NC1=O)C2 [Compound 517]	< 5 nM
COc1ccc2c(c1)C(=O)N(C[C@@]1(C#Cc3cc(Cl)ccc3F)NC(=O)NC1=O)C2 [Compound 518]	< 5 nM
COc1ccc2c(c1)C(=O)N(C[C@@]1(C#Cc3ccc(C(F)(F)F)nc3)NC(=O)NC1=O)C2 [Compound 519]	< 5 nM
COc1ccc2c(c1)C(=O)N(C[C@@]1(C#Cc3sc4ccc(Cl)cc4c3C)NC(=O)NC1=O)C2 [Compound 520]	< 5 nM
COc1ccc2c(c1)C(=O)N(C[C@@]1(C#Cc3cc(F)ccc3F)NC(=O)NC1=O)C2 [Compound 521]	< 5 nM
COc1ccc2c(c1)C(=O)N(C[C@@]1(C#Cc3ccc(S(N)(=O)=O)s3)NC(=O)NC1=O)C2 [Compound 522]	< 5 nM
COc1ccc2c(c1)C(=O)N(C[C@@]1(C#Cc3ccc(C)nn3)NC(=O)NC1=O)C2 [Compound 523]	< 5 nM
COc1ccc2c(c1)C(=O)N(C[C@@]1(C#Cc3cc(C)c4c(cnn4C)c3)NC(=O)NC1=O)C2 [Compound 524]	< 5 nM
COc1ccc2c(c1)C(=O)N(C[C@@]1(C#Cc3ccc4nc(C(F)(F)F)n(C)c4c3)NC(=O)NC1=O)C2 [Compound 525]	< 5 nM
COc1ccc2c(c1)C(=O)N(C[C@@]1(C#Cc3ccc4sccc4c3)NC(=O)NC1=O)C2 [Compound 526]	< 5 nM
COc1ccc2c(c1)C(=O)N(C[C@@]1(C#Cc3cc(C)c4nn(C)cc4c3)NC(=O)NC1=O)C2 [Compound 527]	< 5 nM
COc1ccc2c(c1)C(=O)N(C[C@@]1(C#Cc3csc(C(F)F)c3)NC(=O)NC1=O)C2 [Compound 528]	< 5 nM
COc1ccc2c(c1)C(=O)N(C[C@@]1(C#Cc3ccc(C(F)(F)F)s3)NC(=O)NC1=O)C2 [Compound 529]	< 5 nM
COc1ccc2c(c1)C(=O)N(C[C@@]1(C#Cc3ccc(C(F)(F)F)cc3F)NC(=O)NC1=O)C2 [Compound 530]	< 5 nM
COc1ccc2c(c1)C(=O)N(C[C@@]1(C#Cc3ccc(S(C)(=O)=O)s3)NC(=O)NC1=O)C2 [Compound 531]	< 5 nM
COc1ccc2c(c1)C(=O)N(C[C@@]1(C#Cc3csc4ccccc34)NC(=O)NC1=O)C2 [Compound 532]	< 5 nM
COc1ccc2c(c1)C(=O)N(C[C@@]1(C#Cc3csc(C)c3)NC(=O)NC1=O)C2 [Compound 533]	< 5 nM
COc1ccc2c(c1)C(=O)N(C[C@@]1(C#Cc3cccc(=O)[nH]3)NC(=O)NC1=O)C2 [Compound 535]	< 5 nM
COc1ccc2c(c1)C(=O)N(C[C@@]1(C#Cc3ccc(=O)[nH]c3)NC(=O)NC1=O)C2 [Compound 536]	< 5 nM
COc1ccc2c(c1)C(=O)N(C[C@@]1(C#Cc3ccsc3C(N)=O)NC(=O)NC1=O)C2 [Compound 537]	< 5 nM
COc1ccc2c(c1)C(=O)N(C[C@@]1(C#Cc3ccc(C(N)=O)s3)NC(=O)NC1=O)C2 [Compound 538]	< 5 nM
COc1ccc2c(c1)C(=O)N(C[C@@]1(C#Cc3ccc[n+]([O-])c3)NC(=O)NC1=O)C2 [Compound 539]	< 5 nM
COc1ccc2c(c1)C(=O)N(C[C@@]1(C#Cc3cccn(C)c3=O)NC(=O)NC1=O)C2 [Compound 540]	< 5 nM
COc1ccc2c(c1)C(=O)N(C[C@@]1(C#Cc3cncc(N)c3)NC(=O)NC1=O)C2 [Compound 554]	< 5 nM
COc1ccc2c(c1)C(=O)N(C[C@@]1(C#Cc3cnc(O)cc3C)NC(=O)NC1=O)C2 [Compound 555]	< 5 nM
COc1ccc2c(c1)C(=O)N(C[C@@]1(C#Cc3cn[nH]c3)NC(=O)NC1=O)C2 [Compound 900]	< 5 nM

same assay, conditions: rhTACEc 70 pM, 30 μM SPDL-3, 90 min pre-incubation at 25° C.; read-out: Ki (nM), TACE inhibitory activity

SMILES	Ki
COc1ccc2c(c1)C(=O)N(C[C@@]1(C#Cc3ccc(F)cc3F)NC(=O)NC1=O)C2 [Compound 490]	0.23 nM
COc1ccc2c(c1)C(=O)N(C[C@@]1(C#Cc3cncc(N)c3)NC(=O)NC1=O)C2 [Compound 554]	0.31 nM

From patent US7772263B2, “Compounds for the treatment of inflammatory disorders” (Schering Corporation, priority 2006, dated 2010)
